Columns and labels:
MDA-MB-231met2 xenograft = experiment: Antitumor efficacy and tumor metabolites, mouse xenograft; format: in vivo; settings: after 22 days of dosing
CDK4 = biological target: T1, CDK4 (Homo sapiens, UniProt P11802); experiment: CEREP protein kinase assay; format: biochemical
T1 construct: purchased CEREP Panlabs (Eurofins)

CK1e = biological target: T2, CK1e (Homo sapiens, UniProt P49674); experiment: CEREP protein kinase assay; format: biochemical
T2 construct: purchased CEREP Panlabs (Eurofins)
T2 sequence (P49674 whole entry): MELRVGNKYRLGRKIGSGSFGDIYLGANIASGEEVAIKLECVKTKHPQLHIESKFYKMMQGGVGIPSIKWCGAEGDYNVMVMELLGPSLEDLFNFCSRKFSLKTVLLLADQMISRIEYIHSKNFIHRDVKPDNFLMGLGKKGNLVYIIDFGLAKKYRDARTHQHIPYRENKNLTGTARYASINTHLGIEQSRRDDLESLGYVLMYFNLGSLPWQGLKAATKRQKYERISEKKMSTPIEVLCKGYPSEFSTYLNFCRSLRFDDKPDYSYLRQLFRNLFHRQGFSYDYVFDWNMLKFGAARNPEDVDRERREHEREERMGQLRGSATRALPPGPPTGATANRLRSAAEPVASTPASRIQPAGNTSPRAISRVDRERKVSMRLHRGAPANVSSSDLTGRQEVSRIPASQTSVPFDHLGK

FGFR4 = biological target: T3, FGFR4 (Homo sapiens, UniProt P22455); experiment: CEREP protein kinase assay; format: biochemical
T3 construct: purchased CEREP Panlabs (Eurofins)
T3 sequence (P22455 22-802): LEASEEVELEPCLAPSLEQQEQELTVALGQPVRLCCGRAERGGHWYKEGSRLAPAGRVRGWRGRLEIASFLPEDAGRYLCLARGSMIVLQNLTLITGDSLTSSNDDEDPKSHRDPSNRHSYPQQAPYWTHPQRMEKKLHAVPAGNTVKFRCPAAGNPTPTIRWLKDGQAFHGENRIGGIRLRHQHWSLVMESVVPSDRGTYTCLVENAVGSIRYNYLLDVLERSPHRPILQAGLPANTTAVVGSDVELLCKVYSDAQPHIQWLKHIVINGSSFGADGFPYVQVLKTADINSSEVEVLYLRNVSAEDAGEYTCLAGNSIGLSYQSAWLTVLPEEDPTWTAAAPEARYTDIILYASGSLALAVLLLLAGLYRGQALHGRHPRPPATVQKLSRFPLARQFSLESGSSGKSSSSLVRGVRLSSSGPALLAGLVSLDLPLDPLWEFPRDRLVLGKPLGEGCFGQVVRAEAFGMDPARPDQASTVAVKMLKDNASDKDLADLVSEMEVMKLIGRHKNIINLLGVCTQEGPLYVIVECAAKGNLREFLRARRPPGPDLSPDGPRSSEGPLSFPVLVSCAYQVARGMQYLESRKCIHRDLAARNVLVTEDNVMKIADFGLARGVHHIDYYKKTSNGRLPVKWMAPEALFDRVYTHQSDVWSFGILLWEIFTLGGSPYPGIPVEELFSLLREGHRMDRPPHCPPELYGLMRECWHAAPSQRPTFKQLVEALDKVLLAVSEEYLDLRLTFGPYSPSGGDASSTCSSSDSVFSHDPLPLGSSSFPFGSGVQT

FLT3 = biological target: T4, FLT3 (Homo sapiens, UniProt P36888); experiment: CEREP protein kinase assay; format: biochemical
T4 construct: purchased CEREP Panlabs (Eurofins)
T4 sequence (P36888 27-993): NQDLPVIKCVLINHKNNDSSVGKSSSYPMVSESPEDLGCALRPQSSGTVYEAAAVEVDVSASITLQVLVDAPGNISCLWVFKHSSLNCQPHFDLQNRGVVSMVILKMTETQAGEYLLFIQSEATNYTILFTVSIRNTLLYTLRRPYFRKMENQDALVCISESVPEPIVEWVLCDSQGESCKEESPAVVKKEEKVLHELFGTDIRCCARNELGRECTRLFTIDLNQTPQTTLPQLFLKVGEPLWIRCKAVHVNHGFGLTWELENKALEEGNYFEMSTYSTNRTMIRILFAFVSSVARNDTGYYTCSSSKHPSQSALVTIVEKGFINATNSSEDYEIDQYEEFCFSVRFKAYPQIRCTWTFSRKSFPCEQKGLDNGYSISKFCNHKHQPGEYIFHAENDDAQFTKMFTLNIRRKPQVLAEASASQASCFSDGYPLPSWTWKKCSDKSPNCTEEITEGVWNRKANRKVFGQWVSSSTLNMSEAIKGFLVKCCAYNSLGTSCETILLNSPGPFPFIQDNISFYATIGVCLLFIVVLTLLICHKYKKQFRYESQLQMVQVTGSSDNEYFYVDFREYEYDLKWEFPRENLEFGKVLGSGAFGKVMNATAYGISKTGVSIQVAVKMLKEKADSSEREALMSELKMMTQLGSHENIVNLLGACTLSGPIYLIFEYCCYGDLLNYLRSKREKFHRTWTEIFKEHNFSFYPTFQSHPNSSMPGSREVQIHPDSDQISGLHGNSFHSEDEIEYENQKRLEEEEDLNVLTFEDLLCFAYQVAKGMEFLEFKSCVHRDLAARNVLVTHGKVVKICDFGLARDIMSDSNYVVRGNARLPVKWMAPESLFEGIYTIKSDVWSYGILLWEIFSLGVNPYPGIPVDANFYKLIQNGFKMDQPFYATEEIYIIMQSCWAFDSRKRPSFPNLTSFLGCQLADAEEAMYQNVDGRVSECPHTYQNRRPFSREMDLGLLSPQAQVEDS

MUSK = biological target: T5, MUSK (Homo sapiens, UniProt O15146); experiment: CEREP protein kinase assay; format: biochemical
T5 construct: purchased CEREP Panlabs (Eurofins)
T5 sequence (O15146 24-869): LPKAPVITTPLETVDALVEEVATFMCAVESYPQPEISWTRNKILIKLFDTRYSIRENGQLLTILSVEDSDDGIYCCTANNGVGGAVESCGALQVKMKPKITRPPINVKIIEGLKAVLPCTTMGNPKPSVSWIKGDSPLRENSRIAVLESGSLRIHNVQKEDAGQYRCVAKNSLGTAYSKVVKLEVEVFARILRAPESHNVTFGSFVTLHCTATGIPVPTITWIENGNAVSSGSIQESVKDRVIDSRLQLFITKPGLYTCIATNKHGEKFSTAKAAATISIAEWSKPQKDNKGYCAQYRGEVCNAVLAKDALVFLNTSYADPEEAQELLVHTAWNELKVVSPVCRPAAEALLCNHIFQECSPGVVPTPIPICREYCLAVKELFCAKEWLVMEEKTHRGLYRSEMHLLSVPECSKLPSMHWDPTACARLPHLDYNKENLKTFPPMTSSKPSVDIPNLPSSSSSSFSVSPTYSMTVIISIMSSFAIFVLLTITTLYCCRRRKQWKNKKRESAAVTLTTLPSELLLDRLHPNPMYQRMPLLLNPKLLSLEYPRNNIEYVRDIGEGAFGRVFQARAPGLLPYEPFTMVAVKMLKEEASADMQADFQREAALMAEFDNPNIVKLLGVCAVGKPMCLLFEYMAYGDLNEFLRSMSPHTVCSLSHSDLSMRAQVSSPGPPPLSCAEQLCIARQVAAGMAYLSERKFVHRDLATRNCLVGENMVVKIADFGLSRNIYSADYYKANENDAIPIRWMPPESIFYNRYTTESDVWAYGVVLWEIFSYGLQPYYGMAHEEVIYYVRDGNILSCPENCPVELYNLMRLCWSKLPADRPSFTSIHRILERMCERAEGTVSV

RON = biological target: T6, RON (Homo sapiens, UniProt Q04912); experiment: CEREP protein kinase assay; format: biochemical
T6 construct: purchased CEREP Panlabs (Eurofins)
T6 sequence (Q04912 25-1400): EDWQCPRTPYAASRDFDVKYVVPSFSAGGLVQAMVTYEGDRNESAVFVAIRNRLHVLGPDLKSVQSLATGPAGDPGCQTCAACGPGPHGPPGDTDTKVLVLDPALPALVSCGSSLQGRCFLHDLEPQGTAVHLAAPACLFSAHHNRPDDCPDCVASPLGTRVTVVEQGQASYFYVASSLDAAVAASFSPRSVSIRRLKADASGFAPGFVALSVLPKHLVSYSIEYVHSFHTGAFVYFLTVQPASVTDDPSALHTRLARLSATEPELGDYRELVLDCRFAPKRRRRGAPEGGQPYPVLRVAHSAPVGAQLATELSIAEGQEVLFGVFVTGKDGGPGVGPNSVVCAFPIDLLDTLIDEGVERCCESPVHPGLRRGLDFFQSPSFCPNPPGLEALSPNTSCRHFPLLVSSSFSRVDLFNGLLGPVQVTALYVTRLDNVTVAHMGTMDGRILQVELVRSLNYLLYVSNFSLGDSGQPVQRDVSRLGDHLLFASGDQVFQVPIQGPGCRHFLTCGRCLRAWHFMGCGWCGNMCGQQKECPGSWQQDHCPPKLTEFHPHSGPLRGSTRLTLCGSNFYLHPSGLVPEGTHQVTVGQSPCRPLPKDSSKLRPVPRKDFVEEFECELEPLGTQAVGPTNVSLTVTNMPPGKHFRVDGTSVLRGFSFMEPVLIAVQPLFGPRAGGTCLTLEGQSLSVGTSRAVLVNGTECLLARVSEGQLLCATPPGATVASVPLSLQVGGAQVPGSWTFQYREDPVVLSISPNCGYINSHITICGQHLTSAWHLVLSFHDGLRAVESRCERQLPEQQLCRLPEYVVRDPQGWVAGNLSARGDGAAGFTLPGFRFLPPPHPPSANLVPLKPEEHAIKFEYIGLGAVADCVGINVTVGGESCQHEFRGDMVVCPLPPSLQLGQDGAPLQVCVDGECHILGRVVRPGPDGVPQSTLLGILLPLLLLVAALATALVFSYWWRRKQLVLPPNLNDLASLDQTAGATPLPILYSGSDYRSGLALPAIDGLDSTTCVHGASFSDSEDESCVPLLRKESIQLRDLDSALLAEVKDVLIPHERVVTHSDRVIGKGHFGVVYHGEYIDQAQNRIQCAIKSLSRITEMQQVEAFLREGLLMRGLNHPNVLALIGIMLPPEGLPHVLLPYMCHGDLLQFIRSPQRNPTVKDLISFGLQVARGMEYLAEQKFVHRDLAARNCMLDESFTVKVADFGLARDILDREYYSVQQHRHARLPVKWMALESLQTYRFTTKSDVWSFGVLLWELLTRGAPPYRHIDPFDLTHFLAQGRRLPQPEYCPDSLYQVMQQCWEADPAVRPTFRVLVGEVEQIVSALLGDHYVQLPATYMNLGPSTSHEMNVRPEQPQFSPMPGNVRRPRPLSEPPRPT

T1 sequence (P11802 whole entry): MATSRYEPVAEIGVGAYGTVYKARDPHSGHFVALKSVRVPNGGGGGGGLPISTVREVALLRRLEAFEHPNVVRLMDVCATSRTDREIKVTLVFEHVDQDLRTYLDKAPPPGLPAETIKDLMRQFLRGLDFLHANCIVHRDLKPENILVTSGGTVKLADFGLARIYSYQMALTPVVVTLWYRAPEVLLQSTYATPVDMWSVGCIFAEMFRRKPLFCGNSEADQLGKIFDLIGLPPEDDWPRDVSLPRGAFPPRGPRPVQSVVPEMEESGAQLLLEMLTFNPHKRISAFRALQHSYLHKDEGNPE
T1 sequence (P24385 whole entry partner): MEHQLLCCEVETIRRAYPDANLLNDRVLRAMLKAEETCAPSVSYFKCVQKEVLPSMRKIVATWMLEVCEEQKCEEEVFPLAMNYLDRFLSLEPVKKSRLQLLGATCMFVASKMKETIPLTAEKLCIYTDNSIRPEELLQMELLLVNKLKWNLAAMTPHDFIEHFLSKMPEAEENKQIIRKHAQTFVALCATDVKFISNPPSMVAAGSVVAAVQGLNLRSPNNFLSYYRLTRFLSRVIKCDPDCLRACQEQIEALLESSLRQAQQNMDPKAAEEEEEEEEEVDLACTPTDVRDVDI

O=c1[nH]ccc2cc(F)c(NS(=O)(=O)c3ccc(N4CC[C@@H](O)C4)s3)cc12 [LSN3213128, N-(6-Fluoro-1-oxo-1,2-dihydroisoquinolin-7-yl)-5-[(3R)-3-hydroxypyrrolidin-1-yl]thiophene-2-sulfonamide]
tumor ZTP (MDA-MB-231met2 xenograft; MDA-MB-231met2 tumors): No detectable changes | tumor ZMP levels (MDA-MB-231met2 xenograft; MDA-MB-231 met2 tumors, 30 and 60 mg/kg): dramatically elevated | inhibition at 0.2 µM (CDK4; @ 0.2 uM): -1.51% | inhibition at 2 µM (CDK4; @ 2 uM): 2.45% | inhibition at 20 µM (CDK4; @ 20 uM): 37.2% | inhibition at 0.2 µM (CK1e; @ 0.2 uM): -4.69% | inhibition at 2 µM (CK1e; @ 2 uM): -1.12% | inhibition at 20 µM (CK1e; @ 20 uM): 7.65% | inhibition at 0.2 µM (FGFR4; @ 0.2 uM): 0.737% | inhibition at 2 µM (FGFR4; @ 2 uM): 13.2% | inhibition at 20 µM (FGFR4; @ 20 uM): 8.82% | inhibition at 0.2 µM (FLT3; @ 0.2 uM): -12.1% | inhibition at 2 µM (FLT3; @ 2 uM): 10.7% | inhibition at 20 µM (FLT3; @ 20 uM): 53.2% | inhibition at 0.2 µM (MUSK; @ 0.2 uM): -4.24% | inhibition at 2 µM (MUSK; @ 2 uM): 5.22% | inhibition at 20 µM (MUSK; @ 20 uM): -2.74% | inhibition at 0.2 µM (RON; @ 0.2 uM): -17.2% | inhibition at 2 µM (RON; @ 2 uM): -11.8% | inhibition at 20 µM (RON; @ 20 uM): 33.9%

Reference: publication PMC6193938, “Characterization of a novel AICARFT inhibitor which potently elevates ZMP and has anti-tumor activity in murine models” (Scientific Reports, 2018)
